Measurements from patent US12252470B2, “Lipids and nanoparticle compositions thereof” (Generation Bio Co., priority 2020, dated 2025).

How the values were obtained:
[1] = test system: ceDNA-luciferase (ceDNA-luc); assay: In vivo ceDNA-luc expression by IVIS imaging after IV dosing of LNPs; design: species or system CD-1 mice; details: for luciferase expression and/or activity, rank among lipids tested: Studies A and B; for luciferase expressions and/or activity compared to positive control SS-OP ceDNA LNPs: Study A, vs LNPs 1, 2 and 7-12 (SS-OP), FIG. 1; for luciferase expressions and/or activity compared to positive control SS-OP ceDNA LNPs / luciferase activity compared to positive control SS-OP ceDNA LNP / luciferase expression and/or activity compared to positive control SS-OP ceDNA LNP / luciferase expressions and/or activity compared to SS-OP LNP: Day 4; for luciferase expressions and/or activity compared to positive control SS-OP ceDNA LNPs / luciferase activity compared to positive control SS-OP ceDNA LNP: 0.25 mg/kg IV once on Day 0; for luciferase activity compared to positive control SS-OP ceDNA LNP: Study B, vs LNP 13 (SS-OP), FIG. 2; for luciferase expression and/or activity compared to positive control SS-OP ceDNA LNP: Study C, at both 25 mg/kg and 1 mg/kg, vs LNP 19 (SS-OP), FIG. 3; for luciferase expressions and/or activity compared to SS-OP LNP: 0.25 mg/kg IV
Method: Lipid nanoparticles (LNP) were prepared at a total lipid to ceDNA weight ratio of approximately 10:1 to 30:1. Briefly, an ionizable lipid of the present invention, a non-cationic lipid (e.g., distearoylphosphatidylcholine (DSPC)), a component to provide membrane integrity (such as a sterol, e.g., cholesterol) and a conjugated lipid molecule (such as a PEG-lipid, e.g., 1-(monomethoxy-polyethyleneglycol)-2,3-dimyristoylglycerol, with an average PEG molecular weight of 2000 (“PEG-DMG”)), were solubilized in alcohol (e.g., ethanol) at a molar ratio of, for example, 50:10:37:3 or 20:40:38:2. The ceDNA was diluted to a desired concentration in buffer solution. For example, the ceDNA were diluted to a concentration of 0.1 mg/ml to 0.25 mg/ml in a buffer solution comprising sodium acetate, sodium acetate and magnesium chloride, citrate, malic acid, or malic acid and sodium chloride. In one example, the ceDNA was diluted to 0.2 mg/mL in 10 to 50 mM citrate buffer, pH 4. The alcoholic lipid solution was mixed with ceDNA aqueous solution using, for example, syringe pumps or an impinging jet mixer, at a ratio of about 1:5 to 1:3 (vol/vol) with total flow rates above 10 ml/min. In one example, the alcoholic lipid solution was mixed with ceDNA aqueous at a ratio of about 1:3 (vol/vol) with a flow rate of 12 ml/min. The alcohol was removed, and the buffer was replaced with PBS by dialysis. Alternatively, the buffers were replaced with PBS using centrifugal tubes. Alcohol removal and simultaneous buffer exchange were accomplished by, for example, dialysis or tangential flow filtration. The obtained lipid nanoparticles are filtered through a 0.2 µm pore sterile filter.
In one study, lipid nanoparticles comprising exemplary ceDNAs were prepared using a lipid solution comprising SS-OP, DSPC, Cholesterol and DMG-PEG2000 (mol ratio 50:10:37:3) as control. In some examples, a tissue target moiety like N-Acetylgalactosamine (GalNAc) was included. A GalNAc moiety such as tri-antennary GalNAc (GalNAc3) or tetra-antennary GalNAc (GalNAc4) can be synthesized as known in the art (see, WO2017/084987 and WO2013/166121) and chemically conjugated to lipid or PEG as well-known in the art (see, Resen et al., J. Biol. Chem. (2001) “Determination of the Upper Size Limit for Uptake and Processing of Ligands by the Asialoglycoprotein Receptor on Hepatocytes in Vitro and in Vivo” […]). Aqueous solutions of ceDNA in buffered solutions were prepared. The lipid solution and the ceDNA solution were mixed using an in-house procedure on a NanoAssembler at a total flow rate of 12 mL/min at a lipid to ceDNA ratio of 1:3 (v/v).
(§1) Species (number, sex, age): CD-1 mice (N=65 and 5 spare, male, about 4 weeks of age at arrival).
(§2) Dose Administration: Test articles (LNPs: ceDNA-Luc) were dosed at 5 mL/kg on Day 0 for Groups 1-38 by intravenous administration to lateral tail vein.
• Luciferin stock powder was stored at nominally −20° C. • Stored formulated luciferin in 1 mL aliquots at 2-8° C. protect from light. • Formulated luciferin was stable for up to 3 weeks at 2-8° C., protected from light and stable for about 12 hrs at room temperature (RT). • Dissolved luciferin in PBS to a target concentration of 60 mg/mL at a sufficient volume and adjusted to pH=7.4 with 5-M NaOH (about 0.5 μl/mg luciferin) and HCl (about 0.5 μL/mg luciferin) as needed. • Prepared the appropriate amount according to protocol including at least a about 50% overage. […]

[2] = Tolerability in mice as measured by change in body weight; format: in vivo; details: body weight at Day 1, 0.25 mg/kg IV
Method: as §1
Clinical Observations: Clinical observations were performed about 1, about 5 to about 6 and about 24 hours post the Day 0 Test Material dose. Additional observations were made per exception. Body weights for all animals, as applicable, were recorded on Days 0, 1, 2, 3, 4 & 7 (prior to euthanasia). Additional body weights were recorded as needed.
as §2

[3] = Study D, control Ionizable Lipid A (LNP 22), FIG. 4B
[4] = Study D, vs LNP 23 (SS-OP), FIG. 4A
[5] = Study E, outlier data point in LNP 30 excepted, FIG. 5B
[6] = Study E, vs LNP 27 (SS-OP), FIG. 5A

Row | SMILES | luciferase expressions and/or activity compared to positive control SS-OP ceDNA LNPs [1] | luciferase activity compared to positive control SS-OP ceDNA LNP [1] | tolerability (change in body weight) [2, 3] | luciferase expressions and/or activity compared to SS-OP LNP [1, 4] | tolerability (change in body weight) [2, 5] | luciferase expressions and/or activity compared to SS-OP LNP [1, 6] | further results
1 | CCCCCCCC/C=C\CCCCCCCC(=O)Oc1ccc(CC(=O)OCCC2CCN(CCSSCCN3CCC(CCOC(=O)Cc4ccc(OC(=O)CCCCCCCC(=O)OC(CCCCCCCC)CCCCCCCC)cc4)CC3)CC2)cc1 [Lipid 1, 1-(heptadecan-9-yl) 9-(4-(2-(2-(1-(2-((2-(4-(2-(2-(4-(oleoyloxy)phenyl)acetoxy)ethyl)piperidin-1-yl)ethyl)disulfaneyl)ethyl)piperidin-4-yl)ethoxy)-2-oxoethyl)phenyl) nonanedioate] | equivalent or higher | equivalent or higher |  |  |  |  | luciferase expression and/or activity, rank among lipids tested [1]: highest; luciferase expression and/or activity compared to positive control SS-OP ceDNA LNP [1]: higher
2 | CCCCCCCCCOC(=O)CCCC(=O)Oc1ccc(CC(=O)OCCC2CCN(CCSSCCN3CCC(CCOC(=O)Cc4ccc(OC(=O)CCCCCCCC(=O)OC(CCCCCCCC)CCCCCCCC)cc4)CC3)CC2)cc1 [Lipid 2, 1-(heptadecan-9-yl) 9-(4-(2-(2-(1-(2-((2-(4-(2-(2-(4-((5-(nonyloxy)-5-oxopentanoyl)oxy)phenyl)acetoxy)ethyl)piperidin-1-yl)ethyl)disulfaneyl)ethyl)piperidin-4-yl)ethoxy)-2-oxoethyl)phenyl) nonanedioate] | equivalent or higher | equivalent or higher |  |  |  |  | 
3 | CCCCCCCCCOC(=O)CCCCCCCC(=O)Oc1ccc(CC(=O)OCCC2CCN(CCSSCCN3CCC(CCOC(=O)Cc4ccc(OC(=O)CCCCCCCC(=O)OC(CCCCCCCC)CCCCCCCC)cc4)CC3)CC2)cc1 [Lipid 3, 1-(heptadecan-9-yl) 9-(4-(2-(2-(1-(2-((2-(4-(2-(2-(4-((9-(nonyloxy)-9-oxononanoyl)oxy)phenyl)acetoxy)ethyl)piperidin-1-yl)ethyl)disulfaneyl)ethyl)piperidin-4-yl)ethoxy)-2-oxoethyl)phenyl) nonanedioate] | equivalent or higher | equivalent or higher |  |  |  |  | luciferase expression and/or activity, rank among lipids tested [1]: highest; luciferase expression and/or activity compared to positive control SS-OP ceDNA LNP [1]: higher
4 | CCCCCCCCC(CCCCCCCC)OC(=O)CCCCCCCC(=O)Oc1ccc(CC(=O)OCCC2CCN(CCSSCCN3CCC(CCOC(=O)Cc4ccc(OC(=O)CCCCCCCC(=O)OC(CCCCCCCC)CCCCCCCC)cc4)CC3)CC2)cc1 [Lipid 5, O′1,O1-((((((disulfanediylbis(ethane-2,1-diyl))bis(piperidine-1,4-diyl))bis(ethane-2,1-diyl))bis(oxy))bis(2-oxoethane-2,1-diyl))bis(4,1-phenylene)) 9,9′-di(heptadecan-9-yl) di(nonanedioate)] | equivalent or higher | equivalent or higher |  |  |  |  | 
5 | CCCCCCCC/C=C\CCCCCCCC(=O)Oc1ccc(CC(=O)OCCC2CCN(CCSSCCN3CCC(CCOC(=O)Cc4ccc(OC(=O)CCCCCCCC(=O)OC(CC)CCCCCCCC)cc4)CC3)CC2)cc1 (stereo not drawn) [Lipid 6, 1-(4-(2-(2-(1-(2-((2-(4-(2-(2-(4-(oleoyloxy)phenyl)acetoxy)ethyl)piperidin-1-yl)ethyl)disulfaneyl)ethyl)piperidin-4-yl)ethoxy)-2-oxoethyl)phenyl) 9-(undecan-3-yl) nonanedioate] |  |  | did not cause changes in body weight | equivalent or higher |  |  | 
6 | CCCCCCCC/C=C\CCCCCCCC(=O)Oc1ccc(CC(=O)OCCC2CCN(CCSSCCN3CCC(CCOC(=O)Cc4ccc(OC(=O)CCCCCCCC(=O)OC(CCCC)CCCCCCCC)cc4)CC3)CC2)cc1 (stereo not drawn) [Lipid 7, 1-(4-(2-(2-(1-(2-((2-(4-(2-(2-(4-(oleoyloxy)phenyl)acetoxy)ethyl)piperidin-1-yl)ethyl)disulfaneyl)ethyl)piperidin-4-yl)ethoxy)-2-oxoethyl)phenyl) 9-(tridecan-5-yl) nonanedioate] |  |  | did not cause changes in body weight | equivalent or higher |  |  | 
7 | CCCCCCCC/C=C\CCCCCCCC(=O)Oc1ccc(CC(=O)OCCC2CCN(CCSSCCN3CCC(CCOC(=O)Cc4ccc(OC(=O)CCCCCCCC(=O)OC(CCCCCC)CCCCCCCC)cc4)CC3)CC2)cc1 (stereo not drawn) [Lipid 8, 1-(4-(2-(2-(1-(2-((2-(4-(2-(2-(4-(oleoyloxy)phenyl)acetoxy)ethyl)piperidin-1-yl)ethyl)disulfaneyl)ethyl)piperidin-4-yl)ethoxy)-2-oxoethyl)phenyl) 9-(pentadecan-7-yl) nonanedioate] |  |  | did not cause changes in body weight | equivalent or higher |  |  | 
8 | CCCCCCCCCOC(=O)CCCCCCCC(=O)Oc1ccc(CC(=O)OCCC2CCN(CCSSCCN3CCC(CCOC(=O)Cc4ccc(OC(=O)CCCCCCCC(=O)OC(CC)CCCCCCCC)cc4)CC3)CC2)cc1 (stereo not drawn) [Lipid 9, 1-nonyl 9-(4-(2-oxo-2-(2-(1-(2-((2-(4-(2-(2-(4-((9-oxo-9-(undecan-3-yloxy)nonanoyl)oxy)phenyl)acetoxy)ethyl)piperidin-1-yl)ethyl)disulfaneyl)ethyl)piperidin-4-yl)ethoxy)ethyl)phenyl) nonanedioate] |  |  |  |  | did not cause significant changes in body weight | equivalent or higher | 
9 | CCCCCCCCCOC(=O)CCCCCCCC(=O)Oc1ccc(CC(=O)OCCC2CCN(CCSSCCN3CCC(CCOC(=O)Cc4ccc(OC(=O)CCCCCCCC(=O)OC(CCCC)CCCCCCCC)cc4)CC3)CC2)cc1 (stereo not drawn) [Lipid 10, 1-nonyl 9-(4-(2-oxo-2-(2-(1-(2-((2-(4-(2-(2-(4-((9-oxo-9-(tridecan-5-yloxy)nonanoyl)oxy)phenyl)acetoxy)ethyl)piperidin-1-yl)ethyl)disulfaneyl)ethyl)piperidin-4-yl)ethoxy)ethyl)phenyl) nonanedioate] |  |  |  |  | did not cause significant changes in body weight | equivalent or higher | 
10 | CCCCCCCCCOC(=O)CCCCCCCC(=O)Oc1ccc(CC(=O)OCCC2CCN(CCSSCCN3CCC(CCOC(=O)Cc4ccc(OC(=O)CCCCCCCC(=O)OC(CCCCCC)CCCCCCCC)cc4)CC3)CC2)cc1 (stereo not drawn) [Lipid 11, 1-nonyl 9-(4-(2-oxo-2-(2-(1-(2-((2-(4-(2-(2-(4-((9-oxo-9-(pentadecan-7-yloxy)nonanoyl)oxy)phenyl)acetoxy)ethyl)piperidin-1-yl)ethyl)disulfaneyl)ethyl)piperidin-4-yl)ethoxy)ethyl)phenyl) nonanedioate] |  |  |  |  | did not cause significant changes in body weight | equivalent or higher | 
